Reference: patent US7960392B2, “Nitrogen-containing heterocyclic compounds” (Asahi Kasei Pharma Corporation, priority 2008, dated 2011)

Columns and labels:
human EP1 receptor [1] = target: T1, human EP1 receptor (Homo sapiens, UniProt P34995); test: Antagonist activity (SRE-Luciferase reporter activity) using cells expressing human EP1 receptor; format: cell-based; settings: HEK293 cells stably expressing human EP1 receptor with SRE-Luciferase reporter; PGE2 final concentration 10 nM; 37° C. for 6 hours; read-out: IC50 value, antagonist activity measurement test using the cells expressing human EP1 receptor
T1 construct: expressed in transfected cells
T1 sequence (P34995 1-402): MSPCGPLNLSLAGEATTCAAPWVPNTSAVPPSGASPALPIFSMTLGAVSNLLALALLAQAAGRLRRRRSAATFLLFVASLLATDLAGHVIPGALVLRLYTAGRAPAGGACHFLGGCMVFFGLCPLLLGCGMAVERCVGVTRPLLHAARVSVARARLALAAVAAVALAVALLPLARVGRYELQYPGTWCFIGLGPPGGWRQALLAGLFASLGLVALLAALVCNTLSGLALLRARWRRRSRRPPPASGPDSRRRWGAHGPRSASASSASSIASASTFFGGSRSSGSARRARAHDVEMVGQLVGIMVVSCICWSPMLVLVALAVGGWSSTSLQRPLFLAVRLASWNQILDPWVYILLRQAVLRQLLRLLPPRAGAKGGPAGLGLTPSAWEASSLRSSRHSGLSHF
Description: (§1) Measurement of an Antagonist Activity by Using Cells Expressing Human EP1 Receptor
In order to investigate the EP1 receptor antagonist activity of the compounds of the present invention, a reporter activity was measured by using HEK293 cells in which human EP1 receptor has been stably expressed.
As a result of searching Refseq Database for prostaglandin E receptor, genetic information of human EP1 (NM_000955) receptor was obtained. Based on this sequence information, human EP1 receptor gene was cloned by PCR using human cDNA as a template and by other general method to give human EP1 receptor. Then, HEK293 in which the receptor is stably expressed was established, together with a reporter gene (SRE-Luciferase) in which serum responsible element (SRE) is added at the upstream region of firefly luciferase gene. The resulting cells were added to a 96 well plate (5×10^4 cells/well) and cultured for one day. To the plate, PGE2 (200 nM, final concentration 10 nM) and the test compound (in an amount of 1/20, 20× of the final concentration) were added to initiate the reaction. After allowing the reaction to proceed at 37° C. for 6 hours, the medium was aspirated off, added with a luminescent agent and the reporter activity was measured.

human EP1 receptor [2] = target: T1, human EP1 receptor; test: Antagonist activity (intracellular Ca2+ assay) using cells expressing human EP1 receptor; format: cell-based; settings: HEK293 cells stably expressing human EP1 receptor; inhibition of increase in intracellular Ca2+ concentration by PGE2 (10 nM); Fura 2-AM
Description: as §1
In order to investigate the EP1 receptor antagonist activity of the compounds of the present invention, intracellular Ca^2+ was measured by using HEK293 cells in which human EP1 receptor has been stably expressed.
Cells expressing human EP1 receptor were suspended in an assay buffer to the concentration of 5×10^6 cells/ml, added with Puronic F-127 (final concentration 0.2%), and Fura 2-AM (final concentration 5 uM), followed by incubation at 37° C. for 30 minutes. After washing twice with the assay buffer, the cells were again suspended in the assay buffer to 1×10^6 cells/60 ul, and then transferred to a 96 well UV plate (1×10^6 cells/60 ul/well). Thereafter, by using a fluorescent chemical screening system (FDSS4000, Hamamatsu Photonics K.K.), intracellular Ca^2+ concentration was measured after adding 20 ul of each of the test compounds and PGE2 (5× of the final concentration for both). Ca^2+ concentration was measured by determining fluorescence intensity after irradiation with two excitation wavelengths, i.e., 340 and 380 nm.
Furthermore, EP1 antagonist activity was calculated as a ratio (%) of inhibiting increase in intracellular Ca^2+ concentration by PGE2 (10 nM).
Assay buffer: 20 mM HEPES/KOH (pH 7.4), 115 mM NaCl, 5.4 mM KCl, 0.8 mM MgCl2, 0.8 mM CaCl2, 13.8 mM D-glucose, 0.1% BSA

human EP1 receptor [3] = target: T1, human EP1 receptor; test: Receptor binding test ([3H]PGE2 binding inhibition) using cells expressing human EP1 receptor; settings: membrane fraction of HEK293 cells stably expressing human EP1 receptor; [3H]PGE2 1 nM; 30° C. for 90 minutes; Ki=IC50/(1+[C]/Kd)
Description: Receptor Binding Test Using Cells Expressing Human EP1 Receptor
Inhibitory activity of the test compounds on binding of [^3H]PGE2 in HEK293 cells stably expressing human EP1 receptor was measured.
HEK293 cells which stably express human EP1 receptor were established by using the gene for human EP1 receptor, and then a membrane fraction was prepared therefrom. Thus-prepared membrane fraction was incubated at 30° C. for 90 minutes with a reaction solution (200 μL/well) which includes the test compound and [^3H]PGE2. Upon the completion of the reaction, the reaction solution was aspirated off under reduced pressure, and the [^3H]PGE2 bound to the membrane fraction was trapped by using Unifilter Plateg F/C (manufactured by Packard) and the bound radioactivity was counted with a liquid scintillator.
Kd value was obtained from a Scatchard plot. Non-specific binding was obtained from the binding in the presence of an excess amount (10 μM) of non-labeled PGE2. For the measurement of an inhibitory activity of the test compound on [^3H]PGE2 binding, [^3H]PGE2 (1 nM) and various concentrations of the test compound were added. Meanwhile, for all of the reactions, the buffer as described below was used.
Buffer;10 mM MES/NaOH (pH 6.0), 10 mM MgCl2, 1 mM EDTA, 0.1% BSA
Dissociation constant of the compounds, i.e., Ki, was obtained according to the following equation. […]

female SD rat = test: Micturition interval prolongation in an anesthetized rat-II; format: in vivo; settings: urethane-anesthetized female SD rat; 0.2% acetic acid in physiological saline infused to the bladder; administered to the left femoral vein
Description: Micturition Interval Prolongation in an Anesthetized Rat-II
Activity of prolonging micturition interval in an anesthetized rat was determined with reference to the method established by Maggi, et al. (Eur. J. Pharmacol. 145, p. 105-112 (1988)). Specifically, a female SD rat was anesthetized with urethane and fixed in a flat position, and a catheter was inserted through an external urethral opening. Using a three-way stop cock, it was connected to a pressure transducer and a syringe pump. While infusing physiological saline including 0.2% acetic acid to the bladder at constant rate, cystometrogram was recorded. After confirming stabilized micturition interval, micturition threshold pressure and maximal voiding pressure, a solvent or the compound to be tested was administered to the left femoral vein and an activity of prolonging micturition interval was determined as an efficacy of the drug compound. Each group included five animals.

male SD rat = test: Micturition interval prolongation in an awaken rat-II; format: in vivo; settings: cystitis induced by 0.3% acetic acid, intravenous administration, 60 minutes post- vs 30 minutes pre-administration
Description: Micturition Interval Prolongation in an Awaken Rat-II As a test animal, a male SD rat (Charles River Corporation, Japan) was used. The rat was anesthetized by isofluran inhalation (nitrous oxide:oxygen=7:3), and being laid on its stomach, it remained anesthetized by 2% isofluran inhalation. Then, an incision was made at the center region of the abdomen, and the bladder was exposed. A small incision was made to the vertex region of the bladder, and a polyethylene tube (PE-50: Becton Dickinson) was inserted to the bladder and fixed. One end of a cannula was subcutaneously directed to the backside of the animal, and after fixing the cannula to the abdomen wall, the incision was sealed. The cannula directed to the backside was connected to a seibel and the middle region was protected with a stainless spring. […] Then, through one end of the tube that had been inserted to the bladder, physiological saline warmed to 37° C. was injected at the rate of 3.0 mL/hr using a three-way stop cock, while the other end was connected to a pressure transducer and cystometrogram was recorded continuously with pressure amplification. The discharged urine was collected in a vessel placed on a digital balance and change in the urine weight was measured at the same time. […]

Row | Structure (SMILES) | IC50 (human EP1 receptor [1]) | IC50 (human EP1 receptor [2]) | other results
1 | Cc1c(-c2ccccc2)nn(Cc2nc(C(=O)O)cs2)c1-c1ccccc1 [Exp. 14, 2-{(4-Methyl-3,5-diphenyl-1H-pyrazol-1-yl)methyl}thiazole-4-carboxylic acid] | 300 to 1000 nM |  | 
2 | O=C(O)c1csc(-n2nc(-c3ccccc3O)cc2-c2ccccc2)n1 [Exp. 20] | 100 to 300 nM | 1000 to 3000 nM | 
3 | Nc1c(-c2ccccc2)nn(-c2nc(C(=O)O)cs2)c1-c1ccccc1 [Exp. 35] | ≤ 100 nM | ≤ 300 nM | Ki (human EP1 receptor [3]): ≤ 300 nM; micturition volume (male SD rat): increase in micturition volume; prolongation in micturition interval (male SD rat): at least 30%
4 | O=C(O)c1csc(-n2nc(-c3ccccc3)c(F)c2-c2ccccc2)n1 [Exp. 36] | ≤ 100 nM | 300 to 1000 nM | 
5 | O=C(O)c1csc(-n2nc(-c3ccccc3)c(Cl)c2-c2ccccc2)n1 [Exp. 37] | ≤ 100 nM | 300 to 1000 nM | 
6 | O=C(O)c1csc(-n2nc(-c3ccccc3)c(Br)c2-c2ccccc2)n1 [Exp. 38] | ≤ 100 nM | ≤ 300 nM | 
7 | Cc1c(-c2ccccc2)nn(-c2nc(C(=O)O)cs2)c1-c1cc(F)cc(F)c1 [Exp. 80] | ≤ 100 nM |  | 
8 | Cc1c(-c2ccccc2)nn(-c2nc(C(=O)O)cs2)c1-c1cc(F)c(F)c(F)c1 [Exp. 90] | 100 to 300 nM |  | 
9 | Cc1c(-c2ccccc2)nn(-c2nc(C(=O)O)cs2)c1-c1cccc2cccnc12 [Exp. 105] | ≤ 100 nM |  | 
10 | Cc1c(-c2ccccc2)nn(-c2nc(C(=O)O)cs2)c1C1=CCCCO1 [Exp. 111] | ≤ 100 nM | ≤ 300 nM | 
11 | O=C(O)c1csc(-n2nc(-c3ccccc3)c3c2-c2ccccc2C3)n1 [Exp. 114] | ≤ 100 nM | ≤ 300 nM | 
12 | O=C(O)c1csc(-n2nc3c(c2-c2ccccc2)CCc2ccccc2-3)n1 [Exp. 116] | ≤ 100 nM | ≤ 300 nM | 
13 | O=C(O)c1csc(-n2nc(-c3ccccc3)c3oc4ccccc4c32)n1 [Exp. 117] | ≤ 100 nM |  | 
14 | Cc1c(-c2ccccc2)nn(/C=C\c2nc(C(=O)O)cs2)c1-c1ccccc1 [Exp. 127] | 300 to 1000 nM |  | 
15 | Cc1c(-c2ccccc2)nn(/C=C/c2nc(C(=O)O)cs2)c1-c1ccccc1 [Exp. 128] | 100 to 300 nM |  | 

The next lines start with results.

Row | IC50 (human EP1 receptor [1]) | IC50 (human EP1 receptor [2]) | Structure (SMILES) | other results
16 | ≤ 100 nM | 300 to 1000 nM | Cc1c(-c2ccccc2)nn(-c2nc(C(=O)O)cs2)c1-c1ccccc1 [Exp. 30] | Ki (human EP1 receptor [3]): ≤ 300 nM; Micturition interval prolonging activity (female SD rat): 25.8%
17 | 300 to 1000 nM |  | COc1ccccc1-c1c(C)c(-c2ccccc2)nn1-c1nc(C(=O)O)cs1 [Exp. 42] | 
18 | ≤ 100 nM |  | Cc1c(-c2ccccc2)nn(-c2nc(C(=O)O)cs2)c1-c1cccc(F)c1 [Exp. 44] | 
19 | 100 to 300 nM |  | Cc1c(-c2ccccc2)nn(-c2nc(C(=O)O)cs2)c1-c1cccc(O)c1 [Exp. 48] | 
20 | ≤ 100 nM |  | Cc1c(-c2ccccc2)nn(-c2nc(C(=O)O)cs2)c1-c1ccc(F)cc1 [Exp. 54] | 
21 | 100 to 300 nM |  | Cc1c(-c2ccccc2)nn(-c2nc(C(=O)O)cs2)c1-c1cc(F)ccc1F [Exp. 88] | 
22 | 100 to 300 nM |  | Cc1c(-c2ccccc2)nn(-c2nc(C(=O)O)cs2)c1-c1cccs1 [Exp. 91] | 
23 | ≤ 100 nM |  | Cc1c(-c2ccccc2)nn(-c2nc(C(=O)O)cs2)c1-c1ccsc1 [Exp. 92] | 
24 | ≤ 100 nM | 300 to 1000 nM | Cc1c(-c2ccccc2)nn(-c2nc(C(=O)O)cs2)c1-c1ccco1 [Exp. 94] | 
25 | ≤ 100 nM | 300 to 1000 nM | Cc1c(-c2ccccc2)nn(-c2nc(C(=O)O)cs2)c1-c1ccoc1 [Exp. 95] | 
